From patent US20260193293A1, “PEPTIDES CAPABLE OF INHIBITING PROTEIN-PROTEIN INTERACTIONS AT GABAB1A SUBUNIT AND USES THEREOF” (UNIVERSITY OF COPENHAGEN, priority 2022, published 2026)
Read-outs that look alike come from different tables or passages of the source. Residues, ends and D or L forms follow the SMILES beside them.

Target: Sushi domains (SD1/2) protein
Test: Fluorescence polarization (FP) competition assay with AJAP-1probe, calculated Ki
Assay type: binding
Settings: read-out: Ki (nM) mean ± SEM
Procedure, shortened: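 Ki values were derived from IC50s (sigmoidal fits, ≥ triplicate), with probe Kd obtained by saturation titration of SD1/2. Peptides displaced a 25 nM TAMRA-labelled probe; polarization read at 530/580 nm in 1% BSA-containing PBS, pH 7.4, room temperature.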

[1] = Table 4, truncation and elongation scans of APP epitope
[2] = Table 6, elongation and truncation scan of PIANP binding epitope
[3] = Table 5, elongation and truncation scan of AJAP-1 binding epitope

| SMILES | Ki [3] | also measured |
| --- | --- | --- |
| CC[C@H](C)[C@H](NC(=O)[C@H](Cc1c[nH]c2ccccc12)NC(=O)[C@H](CC(=O)O)NC(=O)[C@H](CC(=O)O)NC(=O)[C@H](CC(=O)O)NC(=O)[C@H](CCC(=O)O)NC(=O)[C@H](CCCNC(=N)N)NC(=O)[C@H](CCCNC(=N)N)NC(=O)[C@H](CCCNC(=N)N)NC(=O)[C@H](CCCNC(=N)N)NC(=O)[C@H](CCCNC(=N)N)NC(=O)[C@H](CCCNC(=N)N)NC(=O)[C@H](CCCNC(=N)N)NC(C)=O)C(=O)N[C@@H](CC(=O)O)C(=O)N[C@@H](Cc1c[nH]c2ccccc12)C(=O)N[C@@H](Cc1ccc(O)cc1)C(=O)N[C@@H](CC(=O)O)C(=O)N[C@@H](CO)C(=O)N[C@@H](CC(=O)O)C(=O)N[C@@H](CC(=O)O)C(=O)N[C@@H](CC(=O)O)C(N)=O (Ac-RRRRRRREDDDWIDWYDSDDD-NH2) |  | Ki (Table 14, CPPs tagged peptides): 89.1 ± 3 nM |
| CC(=O)N[C@@H](CO)C(=O)N[C@@H](C)C(=O)N[C@@H](CC(=O)O)C(=O)N[C@@H](C)C(=O)N[C@@H](CCC(=O)O)C(=O)N[C@@H](CCC(=O)O)C(=O)N[C@@H](CC(=O)O)C(=O)N[C@@H](CC(=O)O)C(=O)N[C@@H](CO)C(=O)N[C@@H](CC(=O)O)C(=O)N[C@H](C(=O)N[C@@H](Cc1c[nH]c2ccccc12)C(=O)N[C@@H](Cc1c[nH]c2ccccc12)C(=O)NCC(=O)NCC(=O)N[C@@H](C)C(=O)N[C@@H](CC(=O)O)C(=O)N[C@H](C(=O)N[C@@H](CC(=O)O)C(=O)N[C@@H](Cc1ccc(O)cc1)C(=O)N[C@@H](C)C(=O)N[C@@H](CC(=O)O)C(N)=O)[C@@H](C)O)C(C)C (Ac-SADAEEDDSDVWWGGADTDYAD-NH2) |  | Ki [1]: 284 ± 5 nM |
| CC(=O)N[C@@H](CO)C(=O)N[C@@H](CC(=O)O)C(=O)N[C@H](C(=O)N[C@@H](Cc1c[nH]c2ccccc12)C(=O)N[C@@H](Cc1c[nH]c2ccccc12)C(=O)NCC(=O)NCC(=O)N[C@@H](C)C(=O)N[C@@H](CC(=O)O)C(=O)N[C@H](C(=O)N[C@@H](CC(=O)O)C(=O)N[C@@H](Cc1ccc(O)cc1)C(=O)N[C@@H](C)C(=O)N[C@@H](CC(=O)O)C(N)=O)[C@@H](C)O)C(C)C (Ac-SDVWWGGADTDYAD-NH2) |  | Ki [1]: 2950 ± 82 nM |
| CC[C@H](C)[C@H](NC(=O)[C@H](C)NC(=O)[C@H](Cc1c[nH]c2ccccc12)NC(=O)[C@@H]1CCCN1C(=O)[C@H](Cc1ccc(O)cc1)NC(=O)[C@H](CCC(N)=O)NC(=O)[C@H](CO)NC(C)=O)C(=O)N[C@H](C(=O)N[C@@H](Cc1c[nH]c2ccccc12)C(=O)NCC(=O)N1CCC[C@H]1C(=O)N[C@H](C(=O)N[C@H](C(=O)N[C@@H](CO)C(=O)N[C@@H](CCCNC(=N)N)C(=O)N[C@@H](CCC(=O)O)C(=O)N[C@@H](CC(=O)O)C(=O)NCC(N)=O)C(C)C)[C@@H](C)O)C(C)C (Ac-SQYPWAIVWGPTVSREDG-NH2) |  | Ki [2]: 762 ± 13 nM |
| CC[C@H](C)[C@H](NC(=O)[C@H](C)NC(=O)[C@H](Cc1c[nH]c2ccccc12)NC(=O)[C@@H]1CCCN1C(=O)[C@H](Cc1ccc(O)cc1)NC(=O)[C@H](CCC(N)=O)NC(=O)[C@H](CO)NC(=O)[C@H](CO)NC(C)=O)C(=O)N[C@H](C(=O)N[C@@H](Cc1c[nH]c2ccccc12)C(=O)NCC(=O)N1CCC[C@H]1C(=O)N[C@H](C(=O)N[C@H](C(=O)N[C@@H](CO)C(=O)N[C@@H](CCCNC(=N)N)C(=O)N[C@@H](CCC(=O)O)C(=O)N[C@@H](CC(=O)O)C(=O)NCC(N)=O)C(C)C)[C@@H](C)O)C(C)C (Ac-SSQYPWAIVWGPTVSREDG-NH2) |  | Ki [2]: 29900 ± 2000 nM |
| CC[C@H](C)[C@H](NC(=O)[C@H](Cc1ccccc1)NC(=O)[C@H](CCC(=O)O)NC(=O)[C@@H](NC(=O)[C@H](CCC(=O)O)NC(=O)[C@@H](NC(C)=O)[C@@H](C)O)[C@@H](C)O)C(=O)N[C@@H](C)C(=O)N[C@@H](Cc1c[nH]c2ccccc12)C(=O)NCC(=O)N1CCC[C@H]1C(=O)N[C@H](C(=O)NCC(=O)N[C@@H](CC(=O)O)C(N)=O)[C@@H](C)O (Ac-TETEFIAWGPTGD-NH2) | 97 ± 7 nM |  |
| CC[C@H](C)[C@H](NC(=O)[C@H](Cc1ccccc1)NC(=O)[C@H](CCC(=O)O)NC(=O)[C@@H](NC(=O)[C@H](CCC(=O)O)NC(=O)[C@@H](NC(C)=O)[C@@H](C)O)[C@@H](C)O)C(=O)N[C@@H](C)C(=O)N[C@@H](Cc1c[nH]c2ccccc12)C(=O)NCC(=O)N1CCC[C@H]1C(=O)N[C@H](C(=O)NCC(=O)N[C@@H](CC(=O)O)C(=O)N[C@@H](CCC(=O)O)C(N)=O)[C@@H](C)O (Ac-TETEFIAWGPTGDE-NH2) | 69 ± 1 nM |  |
| CC[C@H](C)[C@H](NC(=O)[C@H](Cc1ccccc1)NC(=O)[C@H](CCC(=O)O)NC(=O)[C@@H](NC(=O)[C@H](CCC(=O)O)NC(=O)[C@@H](NC(C)=O)[C@@H](C)O)[C@@H](C)O)C(=O)N[C@@H](C)C(=O)N[C@@H](Cc1c[nH]c2ccccc12)C(=O)NCC(=O)N1CCC[C@H]1C(=O)N[C@H](C(=O)NCC(=O)N[C@@H](CC(=O)O)C(=O)N[C@@H](CCC(=O)O)C(=O)N[C@@H](CC(=O)O)C(=O)N[C@@H](C)C(N)=O)[C@@H](C)O (Ac-TETEFIAWGPTGDEDA-NH2) | 36 ± 1.7 nM |  |
| CC[C@H](C)[C@H](NC(=O)[C@H](Cc1ccccc1)NC(=O)[C@H](CCC(=O)O)NC(=O)[C@@H](NC(=O)[C@H](CCC(=O)O)NC(=O)[C@@H](NC(C)=O)[C@@H](C)O)[C@@H](C)O)C(=O)N[C@@H](C)C(=O)N[C@@H](Cc1c[nH]c2ccccc12)C(=O)NCC(=O)N1CCC[C@H]1C(=O)N[C@H](C(=O)NCC(=O)N[C@@H](CC(=O)O)C(=O)N[C@@H](CCC(=O)O)C(=O)N[C@@H](CC(=O)O)C(=O)N[C@@H](C)C(=O)N[C@@H](CC(C)C)C(N)=O)[C@@H](C)O (Ac-TETEFIAWGPTGDEDAL-NH2) | 47 ± 2 nM |  |

Continued, in another order:

| Ki [3] | SMILES | also measured |
| --- | --- | --- |
| 1010 ± 67 nM | CC[C@H](C)[C@H](NC(=O)[C@H](Cc1ccccc1)NC(=O)[C@H](CCC(=O)O)NC(=O)[C@@H](NC(=O)[C@H](CCC(=O)O)NC(=O)[C@@H](NC(C)=O)[C@@H](C)O)[C@@H](C)O)C(=O)N[C@@H](C)C(=O)N[C@@H](Cc1c[nH]c2ccccc12)C(N)=O (Ac-TETEFIAW-NH2) |  |
| 2470 ± 170 nM | CC[C@H](C)[C@H](NC(=O)[C@H](Cc1ccccc1)NC(=O)[C@H](CCC(=O)O)NC(=O)[C@@H](NC(=O)[C@H](CCC(=O)O)NC(=O)[C@@H](NC(C)=O)[C@@H](C)O)[C@@H](C)O)C(=O)N[C@@H](C)C(=O)N[C@@H](Cc1c[nH]c2ccccc12)C(=O)NCC(N)=O (Ac-TETEFIAWG-NH2) |  |
| 574 ± 7 nM | CC[C@H](C)[C@H](NC(=O)[C@H](Cc1ccccc1)NC(=O)[C@H](CCC(=O)O)NC(=O)[C@@H](NC(=O)[C@H](CCC(=O)O)NC(=O)[C@@H](NC(C)=O)[C@@H](C)O)[C@@H](C)O)C(=O)N[C@@H](C)C(=O)N[C@@H](Cc1c[nH]c2ccccc12)C(=O)NCC(=O)N1CCC[C@H]1C(N)=O (Ac-TETEFIAWGP-NH2) |  |
| 236 ± 9 nM | CC[C@H](C)[C@H](NC(=O)[C@H](Cc1ccccc1)NC(=O)[C@H](CCC(=O)O)NC(=O)[C@@H](NC(=O)[C@H](CCC(=O)O)NC(=O)[C@@H](NC(C)=O)[C@@H](C)O)[C@@H](C)O)C(=O)N[C@@H](C)C(=O)N[C@@H](Cc1c[nH]c2ccccc12)C(=O)NCC(=O)N1CCC[C@H]1C(=O)N[C@H](C(N)=O)[C@@H](C)O (Ac-TETEFIAWGPT-NH2) |  |
| 248 ± 7 nM | CC[C@H](C)[C@H](NC(=O)[C@H](Cc1ccccc1)NC(=O)[C@H](CCC(=O)O)NC(=O)[C@@H](NC(=O)[C@H](CCC(=O)O)NC(=O)[C@@H](NC(C)=O)[C@@H](C)O)[C@@H](C)O)C(=O)N[C@@H](C)C(=O)N[C@@H](Cc1c[nH]c2ccccc12)C(=O)NCC(=O)N1CCC[C@H]1C(=O)N[C@H](C(=O)NCC(N)=O)[C@@H](C)O (Ac-TETEFIAWGPTG-NH2) |  |
